In patent US20090149482A1, “STEREOCHEMICALLY DEFINED DIPEPTIDE ESTERS OF ANTIVIRAL AGENTS FOR ENHANCED OCULAR TREATMENT” (priority 2001, published 2009):
Read-outs that look alike come from different tables or passages of the source. Marks after values point to notes of the source that are not given here. Blank lines part the entries; values can stand above or below the molecule they belong to. Where a SMILES comes first, the peptide text is derived from it. [ ]: non-standard residue; d: D form. Sar = CNCC(=O)O

Experiments:
hPEPT1 = target: T1, hPEPT1 (Homo sapiens, UniProt P46059); experiment: [3H] Glycylsarcosine uptake and its inhibition in Caco-2 cells (affinity towards peptide transporter); type: cell-based; settings: for Vmax of Gly-Sar uptake in presence of the drug: Gly-Sar with drug (10 mM); for Ki: read-out: Ki; for effect on the uptake of [3H] Gly-Sar: Caco-2, pH 6.0, 10 minutes
T1 construct: endogenous in cells; host or cells: Caco-2 (human colon carcinoma, ATCC)
T1 sequence (P46059 1-708): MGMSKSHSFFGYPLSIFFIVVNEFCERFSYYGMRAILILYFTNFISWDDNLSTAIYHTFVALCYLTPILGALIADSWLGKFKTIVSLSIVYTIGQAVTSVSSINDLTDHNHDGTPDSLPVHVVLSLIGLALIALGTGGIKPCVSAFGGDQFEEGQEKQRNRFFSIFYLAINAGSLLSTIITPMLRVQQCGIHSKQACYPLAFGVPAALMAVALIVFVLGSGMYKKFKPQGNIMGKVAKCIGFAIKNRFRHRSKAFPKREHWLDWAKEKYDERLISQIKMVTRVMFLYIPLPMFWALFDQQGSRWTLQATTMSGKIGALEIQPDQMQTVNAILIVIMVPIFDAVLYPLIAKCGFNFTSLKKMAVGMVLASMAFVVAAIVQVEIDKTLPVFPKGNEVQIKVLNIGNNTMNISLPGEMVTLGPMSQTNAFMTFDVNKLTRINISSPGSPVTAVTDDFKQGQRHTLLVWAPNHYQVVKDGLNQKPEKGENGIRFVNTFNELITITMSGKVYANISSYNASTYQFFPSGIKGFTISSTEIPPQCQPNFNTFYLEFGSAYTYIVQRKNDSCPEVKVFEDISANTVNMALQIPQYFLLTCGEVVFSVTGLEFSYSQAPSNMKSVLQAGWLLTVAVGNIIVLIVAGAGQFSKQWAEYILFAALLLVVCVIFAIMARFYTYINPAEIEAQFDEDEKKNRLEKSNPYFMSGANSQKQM
Text: Materials: [^3H] Glycylsarcosine (Gly-Sar; 4 Ci/mmol) was purchased from Moravek Biochemicals (Brea, Calif.) and [^14C] Mannitol (50 mCi/mmol) was supplied by Amersham (Piscataway, N.J.). Human colon carcinoma derived Caco-2 cells were obtained from American Type Culture Collection (ATCC, Rockville, Md.). The growth medium, Dulbecco's modified Eagle Medium was obtained from Life Technologies (Grand Island, N.Y.). […] Fetal bovine serum (FBS) was purchased from JRH Biosciences (Lenexa, Kans.). Culture flasks (75 cm^2 growth area), polyester Transwells® (pore size 0.4 Cm with diameter 6.5 mm) and polyester membranes (pore size 0.4 Cm) were procured from Costar (Bedford, Mass.). The buffer components and solvents were obtained from Fisher Scientific (St. Louis, Mo.). All the di-peptide esters of acyclovir were custom synthesized in our laboratory. […] Cell Culture: All cultures were maintained in humidified incubator at 37° C. with a 5% carbon dioxide in air atmosphere. Caco-2 cells were obtained at passage 25 from American Type Culture Collection (ATCC) and grown in plastic tissue culture flasks. […] When 80% confluent, these cells were removed by treating them with Trypsin/EDTA and plated at a density of 100,000 cells/cm^2 on collagen coated plastic dishes containing clear polyester membranes (0.636 cm^2, […]) or 12-well tissue culture treated plastic plates. Cells were then grown in medium containing 10% FBS (heat-inactivated). […] [^14C] […] Metabolism studies in Cell Suspensions: Confluent Caco-2 cells, grown in tissue culture flasks were isolated with the aid of mechanical scraper and washed thrice with DPBS. […] One-hundred micro-liters of samples were withdrawn at predetermined time intervals and the sample was purified by precipitating the cellular proteins into the organic solvent mixture and stored at −80° C. until further analysis. The protein content of the cell suspension was determined by the method of Bradford using bovine serum albumin as the standard (BioRad protein estimation kit, Hercules, Calif.). […] Transport studies: Transport experiments were done using Side-Bi-Side™ diffusion cells (type VSC-1, Crown Glass Company Inc.) and Transwell® inserts. Prior to the experiment with Gly-Sar, Caco-2 cell monolayers grown on the clear polyester membranes and Transwell® inserts were washed with DPBS (pH 6.0) and incubated at 37° C. Freshly prepared drug solutions in DPBS (pH 6.0) was placed in the donor chamber and the receiver chamber was filled with DPBS. The volumes of donor and receptor chambers were 3 ml each for Side-Bi-Side™ diffusion cells and 0.5 ml and 1.5 ml respectively for Transwell® inserts. […] The samples were stored at −80° C. until analyzed HPLC. All experiments were performed at 37° C. […] The concentration dependent uptake of glycylsarcosine was studied using [^3H] […] For Dixon plots and Dose Response studies [^3H] […] Following incubation, the cell monolayers were washed three times with ice-cold HEPES buffer to terminate the uptake experiment. After the washings cells were lysed overnight using 1 ml 0.1% (w/v) Triton X-100 in 0.3 N NaOH at room temperature. Aliquots (500 μl) from each well were then transferred to scintillation vials containing 5 ml scintillation cocktail (Fisher Scientific, Fairlawn, N.J.). […] The amount of protein in the cell lysate was measured by the BioRad protein estimation kit using bovine serum albumin as standard (BioRad Protein estimation Kit, Hercules, Calif.). Analytical Procedures: All samples were assayed using HPLC. […] The column used was a C18 Luna column 4.6×250 mm (Phenomenex). The mobile phase consisted of a mixture of buffer and an organic modifier. The percentage of organic phase was varied in order to elute compounds of interest.

Caco-2 cell suspension = settings: for 10^2 × kobs: Caco-2 cell suspension at pH 7.4, * = no intact drug detected during the experiment
in vitro = settings: human, Caco-2, pH 7.4
[1] = test system: oligopeptide transporter on the rabbit cornea
[2] = Plasma pharmacokinetics of stereoisomeric prodrugs following oral administration in rats
HSV-1 strain McKrae = experiment: HSV-1 epithelial keratitis rabbit model, topical treatment, SLE scores; type: in vivo
Text: The rabbit eye is an excellent model to study acute HSV-1 epithelial keratitis. Also, spontaneous and induced ocular HSV-1 shedding and corneal epithelial disease in rabbits has been used as a model of human ocular HSV-1 reactivation and recurrence. HSV-1 strain McKrae was used in studies for epithelial keratitis. HSV-1 strain RE was used for studies of HSV stromal keratitis.
i) Epithelial Keratitis: A group of ten rabbits was used to study each compound. Both eyes of all rabbits were used. An aqueous vehicle (like a placebo) and one positive control were obtained using 1% TFT (Viroptic®). Each compound at 1% concentration (TFT=33 mM, Gly-Gly-ACV=26.6 mM, Val-Val-ACV=18.6 mM) were applied (50 μl) topically 5 times per day every two hours starting at 8:00 a.m. and ending at 4:00 p.m. The treatment began on the 3rd post-inoculation day and continued for 5 consecutive days. Slit-lamp examinations were performed once every day for 8 days and thereafter once every other day until lesions resolved.

[3] = for first order hydrolytic rate constant k: 37° C.
[4] = test system: rabbit corneal cell line (SIRC); settings: SIRC cells
HCMV = experiment: In vitro antiviral screening, CPE inhibition in HFF cells; type: cell-based, human cytomegalovirus; settings: Human betaherpesvirus 5, HFF; HCMV, CPE Inhibition
[5] = substrate: CN(CC(=O)O)C(=O)CN; experiment: [3H] Glycylsarcosine uptake and its inhibition in Caco-2 cells (affinity towards peptide transporter); type: cell-based, human; settings: other: Gly-Sar alone, 37.0 °C
[6] = plasma analyte following oral administration of LDACV in rats

- Vmax of Gly-Sar uptake in presence of the drug (hPEPT1; Lineweaver-Burk): 0.087 ± 0.09 µmol/min/mg
- Ki (hPEPT1; Lineweaver-Burk): 8.23 ± 0.43 mM
- Ki (hPEPT1; Michaelis-Menten): 7.99 ± 0.54 mM
- 10^2 × kobs (Caco-2 cell suspension): 5.22 ± 0.58 min^−1mg^−1 protein
- half-life at 0.2 mM (in vitro): 13.3 ± 1.5 min
Molecule: Nc1nc2c(ncn2COCCOC(=O)CNC(=O)C(N)Cc2ccc(O)cc2)c(=O)[nH]1 (stereo not drawn) [Tyr-Gly-ACV]

Molecule: Nc1ccc(C(=O)NCC(=O)O)cc1 [PAH, para-aminohippuric acid, reference compound]
- transport of Val-ACV (percent of control) ([1]; 1 mM Val-ACV in presence of 10 mM compound): 99.6±2.6% of control

Molecule: CC(C)[C@@H](N)C(=O)OCCOCn1cnc2c(=O)[nH]c(N)nc21 [DACV]
- AUC [2, 6]: 261.89 ± 23.64 µM·min
- Cmax [2, 6]: 8.68 ± 1.24 µM
- Tmax [2, 6]: 15 min

- effect on the uptake of [3H] Gly-Sar (hPEPT1): significantly inhibited
Molecule: CC(C)[C@H](N)C(=O)N[C@H](C(=O)O)C(C)C [val-val, reference compound] (H-Val-Val-OH)

Molecule: Nc1nc2c(ncn2COCCOC(=O)C(N)Cc2ccc(O)cc2)c(=O)[nH]1 (centres unmarked) [tyrosine-ACV]
- effect on the uptake of [3H] Gly-Sar (hPEPT1): did not inhibit

Molecule: NCC(=O)OCCOCn1cnc2c(=O)[nH]c(N)nc21 [glycine-ACV]
- effect on the uptake of [3H] Gly-Sar (hPEPT1): did not inhibit

Molecule: CC[N+](CC)(CC)CC [TEA, tetraethlyammonium, reference compound]
- transport of Val-ACV (percent of control) [1]: 101.3±1.1% of control

- effect on the uptake of [3H] Gly-Sar (hPEPT1): significantly inhibited
- Kd (rate constant of nonsaturable uptake component) (hPEPT1; Caco-2 uptake of glycylsarcosine): 12.2 ± 0.57 µL/min/mg
- Ki (hPEPT1; Dixon): 2.35 ± 0.67 mM
- Ki (hPEPT1; Dose Response (Cheng and Prusoff from IC50)): 2.49 mM
- Vmax of glycylsarcosine uptake (hPEPT1; Gly-Sar alone, Michaelis-Menten): 0.078 ± 0.005 µmol/min/mg
- IC50 (hPEPT1; dose response curves, read-out: IC50 of inhibition of [3H] Gly-Sar uptake): 2.78 ± 0.34 mM
Molecule: CN(CC(=O)O)C(=O)CN [Gly-Sar, glycylsarcosine, reference compound] (H-Gly-[Sar]-OH)

Molecule: NCC(=O)NCC(=O)OCCOCn1cnc2c(=O)[nH]c(N)nc21 [Gly-Gly-ACV]
- efficacy relative to TFT (SLE scores) (HSV-1 strain McKrae): more effective than TFT
- Concentration required to achieve an SLE Score of 0.3 (HSV-1 strain McKrae; 14 days post-inoculation, 1% topical 5 times per day): 26.6 mM
- intact drug after incubation with the cell suspension (Caco-2 cell suspension; Caco-2 cell suspension): no intact drug detected within one minute
- stability as an ophthalmic solution ([3]; pH 5.6, concluded from rate constants): stable for two years
- first order hydrolytic rate constant k ([3]; pH 7.4): 6.75 k × 10^3 min^−1
- first order hydrolytic rate constant k ([3]; pH 9.0): 14.85 k × 10^3 min^−1
- percent survival ([4]; 0.25 mM): 104.6%
- percent survival ([4]; 0.5 mM): 94.7%
- percent survival ([4]; 1 mM): 90.1%
- percent survival ([4]; 2 mM): 86.2%
- percent survival ([4]; 5 mM): 63.8%
- percent survival ([4]; 10 mM): 49.32%

- EC50 (HCMV): 0.00094 mM
Molecule: Nc1nc(O)c2ncn(COC(CO)CO)c2n1 [GCV, 2-amino-1,9-[[2-hydroxy-1-(hydroxymethyl)ethoxy]methyl]-6H-purin-6-one]

Molecule: CC(C)C(N)C(=O)NC(C(=O)OCCOCn1cnc2c(=O)[nH]c(N)nc21)C(C)C [DLACV, D-valine-L-valine-acyclovir]
- concentrations in the systemic circulation ([2]; oral administration in rats): Very little concentrations were observed

- Vmax of Gly-Sar uptake in presence of the drug (hPEPT1; Lineweaver-Burk): 0.094 ± 0.11 µmol/min/mg
- Ki (hPEPT1; Lineweaver-Burk): 3.94 ± 0.61 mM
- Ki (hPEPT1; Michaelis-Menten): 3.56 ± 1.98 mM
- 10^2 × kobs (Caco-2 cell suspension): 3.21 ± 0.46 min^−1mg^−1 protein
- half-life at 0.2 mM (in vitro): 21.5 ± 3.2 min
Molecule: NCC(=O)NC(Cc1ccc(O)cc1)C(=O)OCCOCn1cnc2c(=O)[nH]c(N)nc21 (stereo not drawn) [Gly-Tyr-ACV]

B1: hPEPT1 (Homo sapiens) (protein)
chain: T1 sequence (P46059 1-708)
notes: endogenous in cells; host or cells: Caco-2 (human colon carcinoma, ATCC)
- Km ([5]; Eadie-Hofstee): 1.42 ± 0.19 mM
- Vmax ([5]; Eadie-Hofstee): 0.071 µmol/min/mg
- Km ([5]; Lineweaver-Burk (control)): 2.04 ± 0.61^a mM
- Vmax ([5]; Lineweaver-Burk (control)): 0.086 µmol/min/mg
- Km ([5]; Michaelis-Menten): 1.63 ± 0.25 mM
- Vmax ([5]; Michaelis-Menten): 0.078 µmol/min/mg
